# Data taken from PubChem BioAssay (NCI).
#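 GI50 marks 50% less growth. TGI is the concentration that stops growth completely.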
# Experiments:
# Assay in all cases: NCI anticancer screen, dose series, 384-well format
# 786-0 renal = system: 786-0 renal
# PC-3 prostate = system: PC-3 prostate
# U251 glioblastoma = system: U251 glioblastoma
# NCI-H460 NSCLC = system: NCI-H460 NSCLC
# SK-OV-3 ovarian = system: SK-OV-3 ovarian
# SN12C renal = system: SN12C renal
# OVCAR-8 ovarian = system: OVCAR-8 ovarian
# HOP-92 NSCLC = system: HOP-92 NSCLC
# HCC-2998 colon = system: HCC-2998 colon
# HL-60(TB) leukemia = system: HL-60(TB) leukemia
# RPMI-8226 leukemia = system: RPMI-8226 leukemia
# SF-539 CNS = system: SF-539 CNS
# RXF 393 renal = system: RXF 393 renal
# UO-31 renal = system: UO-31 renal
# SW-620 colon = system: SW-620 colon
# HCT-116 colon = system: HCT-116 colon
# CCRF-CEM leukemia = system: CCRF-CEM leukemia
# NCI-H522 lung = system: NCI-H522 lung
# OVCAR-4 ovarian = system: OVCAR-4 ovarian
# HS 578T breast = system: HS 578T breast
# SF-295 CNS = system: SF-295 CNS
# MOLT-4 leukemia = system: MOLT-4 leukemia
# TK-10 renal = system: TK-10 renal
# COLO 205 colon = system: COLO 205 colon
# ACHN renal = system: ACHN renal
# NCI-H226 lung = system: NCI-H226 lung
# HT29 colon = system: HT29 colon
# SNB-19 CNS = system: SNB-19 CNS
# DU-145 prostate = system: DU-145 prostate
# OVCAR-3 ovarian = system: OVCAR-3 ovarian
# HOP-62 NSCLC = system: HOP-62 NSCLC
# MALME-3M melanoma = system: MALME-3M melanoma
# KM12 colon = system: KM12 colon
# HCT-15 colon = system: HCT-15 colon
# SK-MEL-28 melanoma = system: SK-MEL-28 melanoma
# K-562 leukemia = system: K-562 leukemia
# MDA-MB-435 melanoma = system: MDA-MB-435 melanoma
# CAKI-1 renal = system: CAKI-1 renal
# A498 renal = system: A498 renal
# NCI-H322M lung = system: NCI-H322M lung
# IGROV1 ovarian = system: IGROV1 ovarian
# EKVX NSCLC = system: EKVX NSCLC
# MDA-MB-231 breast = system: MDA-MB-231 breast
# NCI/ADR-RES ovarian = system: NCI/ADR-RES ovarian
# SK-MEL-5 melanoma = system: SK-MEL-5 melanoma
# UACC-257 melanoma = system: UACC-257 melanoma
# BT-549 breast = system: BT-549 breast
# T-47D breast = system: T-47D breast
# NCI-H23 lung = system: NCI-H23 lung
# A549 NSCLC = system: A549 NSCLC
# MCF7 breast = system: MCF7 breast
# UACC-62 melanoma = system: UACC-62 melanoma
# M14 melanoma = system: M14 melanoma
# MDA-MB-468 breast = system: MDA-MB-468 breast
# SF-268 CNS = system: SF-268 CNS
# OVCAR-5 ovarian = system: OVCAR-5 ovarian
# SNB-75 CNS = system: SNB-75 CNS
# LOX IMVI melanoma = system: LOX IMVI melanoma
smiles,measurement,setting,value
CCOC(=O)C(Cc1ccc(CCCC(=O)NCCC(=O)Nc2ccc3nc(C)sc3c2)cc1)C(=O)OCC,GI50,786-0 renal,26.7 µM
same,TGI,786-0 renal,75 µM
same,GI50,PC-3 prostate,19.4 µM
same,TGI,PC-3 prostate,33.9 µM
same,GI50,U251 glioblastoma,37.6 µM
same,TGI,U251 glioblastoma,> 100 µM
same,GI50,NCI-H460 NSCLC,19.2 µM
same,TGI,NCI-H460 NSCLC,35.9 µM
same,GI50,SK-OV-3 ovarian,22.6 µM
same,TGI,SK-OV-3 ovarian,46.8 µM
same,GI50,SN12C renal,24.7 µM
same,TGI,SN12C renal,48.4 µM
same,GI50,OVCAR-8 ovarian,18.1 µM
same,TGI,OVCAR-8 ovarian,32 µM
same,GI50,HOP-92 NSCLC,25.8 µM
same,TGI,HOP-92 NSCLC,68.2 µM
same,GI50,HCC-2998 colon,10.2 µM
same,TGI,HCC-2998 colon,35.6 µM
same,GI50,HL-60(TB) leukemia,23 µM
same,TGI,HL-60(TB) leukemia,37.6 µM
same,GI50,RPMI-8226 leukemia,17.7 µM
same,TGI,RPMI-8226 leukemia,31.7 µM
same,GI50,SF-539 CNS,18.7 µM
same,TGI,SF-539 CNS,32.8 µM
same,GI50,RXF 393 renal,21.8 µM
same,TGI,RXF 393 renal,48.3 µM
same,GI50,UO-31 renal,22.9 µM
same,TGI,UO-31 renal,48.7 µM
same,GI50,SW-620 colon,55.2 µM
same,TGI,SW-620 colon,> 100 µM
same,GI50,HCT-116 colon,25.9 µM
same,TGI,HCT-116 colon,62.8 µM
same,GI50,CCRF-CEM leukemia,17.5 µM
same,TGI,CCRF-CEM leukemia,31.4 µM
same,GI50,NCI-H522 lung,20.5 µM
same,TGI,NCI-H522 lung,37.1 µM
same,GI50,OVCAR-4 ovarian,32.5 µM
same,TGI,OVCAR-4 ovarian,72 µM
same,GI50,HS 578T breast,19.8 µM
same,TGI,HS 578T breast,34.5 µM
same,GI50,SF-295 CNS,35.4 µM
same,TGI,SF-295 CNS,> 100 µM
same,GI50,MOLT-4 leukemia,13 µM
same,TGI,MOLT-4 leukemia,25.7 µM
same,GI50,TK-10 renal,30.4 µM
same,TGI,TK-10 renal,83.9 µM
same,GI50,COLO 205 colon,21.1 µM
same,TGI,COLO 205 colon,40.3 µM
same,GI50,ACHN renal,18 µM
same,TGI,ACHN renal,31.9 µM
same,GI50,NCI-H226 lung,17.1 µM
same,TGI,NCI-H226 lung,32.1 µM
same,GI50,HT29 colon,21.3 µM
same,TGI,HT29 colon,42.5 µM
same,GI50,SNB-19 CNS,63.1 µM
same,TGI,SNB-19 CNS,> 100 µM
same,GI50,DU-145 prostate,19.8 µM
same,TGI,DU-145 prostate,34.9 µM
same,GI50,OVCAR-3 ovarian,21.9 µM
same,TGI,OVCAR-3 ovarian,40.4 µM
same,GI50,HOP-62 NSCLC,17.2 µM
same,TGI,HOP-62 NSCLC,35.9 µM
same,GI50,MALME-3M melanoma,22.5 µM
same,TGI,MALME-3M melanoma,45.7 µM
same,GI50,KM12 colon,18.8 µM
same,TGI,KM12 colon,37.3 µM
same,GI50,HCT-15 colon,23.1 µM
same,TGI,HCT-15 colon,47.9 µM
same,GI50,SK-MEL-28 melanoma,26.6 µM
same,TGI,SK-MEL-28 melanoma,51.7 µM
same,GI50,K-562 leukemia,14 µM
same,TGI,K-562 leukemia,33.6 µM
same,GI50,MDA-MB-435 melanoma,23.5 µM
same,TGI,MDA-MB-435 melanoma,41.2 µM
same,GI50,CAKI-1 renal,18.4 µM
same,TGI,CAKI-1 renal,33.1 µM
same,GI50,A498 renal,27.7 µM
same,TGI,A498 renal,64.1 µM
same,GI50,NCI-H322M lung,19.4 µM
same,TGI,NCI-H322M lung,38.3 µM
same,GI50,IGROV1 ovarian,26.2 µM
same,TGI,IGROV1 ovarian,51.9 µM
same,GI50,EKVX NSCLC,27.7 µM
same,TGI,EKVX NSCLC,69.6 µM
same,GI50,MDA-MB-231 breast,21.1 µM
same,TGI,MDA-MB-231 breast,48.1 µM
same,GI50,NCI/ADR-RES ovarian,17.9 µM
same,TGI,NCI/ADR-RES ovarian,31.9 µM
same,GI50,SK-MEL-5 melanoma,14.1 µM
same,TGI,SK-MEL-5 melanoma,27.1 µM
same,GI50,UACC-257 melanoma,19 µM
same,TGI,UACC-257 melanoma,33.1 µM
same,GI50,BT-549 breast,19.2 µM
same,TGI,BT-549 breast,33.8 µM
same,GI50,T-47D breast,8.21 µM
same,TGI,T-47D breast,20.4 µM
same,GI50,NCI-H23 lung,19.7 µM
same,TGI,NCI-H23 lung,37.2 µM
same,GI50,A549 NSCLC,23.3 µM
same,TGI,A549 NSCLC,59.1 µM
same,GI50,MCF7 breast,16.7 µM
same,TGI,MCF7 breast,32.5 µM
same,GI50,UACC-62 melanoma,19.1 µM
same,TGI,UACC-62 melanoma,33.6 µM
same,GI50,M14 melanoma,19.3 µM
same,TGI,M14 melanoma,37 µM
same,GI50,MDA-MB-468 breast,12 µM
same,TGI,MDA-MB-468 breast,25.6 µM
same,GI50,SF-268 CNS,17.7 µM
same,TGI,SF-268 CNS,38.3 µM
same,GI50,OVCAR-5 ovarian,> 100 µM
same,TGI,OVCAR-5 ovarian,> 100 µM
same,GI50,SNB-75 CNS,19.7 µM
same,TGI,SNB-75 CNS,35.8 µM
same,GI50,LOX IMVI melanoma,16.8 µM
same,TGI,LOX IMVI melanoma,30.8 µM
